Measured values as given in patent publication US4179467A, “Dopamine hydroxylase inhibiting 2-amino-cyclopent-1-ene-1-thiocarboxylic acid-disulfides” (Richter Gedeon Vegyeszeti Gyar Rt., priority 1976, dated 1979).
Like-named read-outs stand apart in the source and are kept apart here.

Tests used:
[1] = test system: dopamine-β-hydroxylase; details: literature, cited from earlier work; for dopamine-β-hydroxylase inhibiting effects, in words / duration of dopamine-β-hydroxylase inhibiting effect, in words: known compounds
[2] = in vivo; details: mouse, in vivo, mice
[3] = test system: serotonine and 5-hydroxy-indolylacetic acid levels of the cerebrum; test: Serotonine and 5-hydroxy-indolylacetic acid levels of the cerebrum (brain) in rats, % of controls; assay type: in vivo, male Wistar rats; details: rat; for response vs control in vivo at 200 mg/kg / response vs control in vivo at 100 mg/kg / response vs control in vivo at 50 mg/kg: ip, i.p.; for response vs control in vivo at 500 mg/kg: po, p.o.
Experimental: (§1) The tests were performed on male Wistar rats weighing 150 to 200 g. The dopamine-β-hydroxylase inhibiting effects of the compounds were evaluated by determining the change of noradrenaline, dopamine and adrenaline levels of the cerebrum, heart, spleen and adrenal gland. The serotonine and 5-hydroxy-indolylacetic acid levels of the cerebrum were also determined. The measurements were performed as follows:
(§2) The animals were decapitated, the cerebrum, heart, spleen and adrenal gland were removed quickly, and the organs were frozen by placing them on a metal sheet cooled with dry ice. The frozen organs were stored for a maximum of one night at -20° C.
In a further test series the serotonine and 5-hydroxy-indolylacetic acid contents were also determined, in addition to the determination of the noradrenaline and dopamine content, from the same sample. In this instance the brains were homogenized in 10 ml of 75% ethanol, 0.2 ml of EDTA-Na2 and 5% of ascorbic acid were added to the homogenized mixtures, and the homogenized mixtures were maintained at -20° C. overnight. The mixtures were centrifuged as described above, and 5.0 ml samples of the supernatant were removed. The samples were diluted with equal volumes of distilled water, and poured onto ion exchange columns of 0.5×1.5 cm dimensions, filled with buffered Amberlite CG-30 (200 to 400 mesh). The columns were washed with 5 ml of distilled water followed by 1.0 ml of 0.2 N hydrochloric acid, and the first effluent and the aqueous wash were collected for the determination of 5-hydroxy-indolylacetic acid. Elution was continued with a further 1.2 ml quantity of 0.2 N hydrochloric acid in order to remove noradrenaline, dopamine and serotonine. Samples of 0.3 ml were used for the determinations.
Noradrenaline and dopamine were determined by the method of Shellenberger, modified as described above, whereas serotonine was determined by the method of Curzon et al. (Brit. J. Pharmacol. 39, 653 (1970)). The basic method was modified as follows: A 0.5% solution of ortho-phthal(di)aldehyde in absolute ethanol was diluted with […] hydrochloric acid to 50-fold of its original volume, and 0.6 ml of the resulting 0.01% ortho-phthal(di)aldehyde solution were added immediately to 0.5 ml of the serotonine-containing sample. The sample was placed in a hot water bath for 10 minutes, thereafter cooled with tap water, and the flourescence was recorded at wavelengths of 360 nm (excitation) and 490 nm (emission).
5-Hydroxy-indolylacetic acid was determined from the mixture of the first effluent and the aqueous wash. 10 ml of distilled water and 0.2 ml of concentrated hydrochloric acid were added to the mixture, and the sample was poured onto a 0.8×4.0 cm column filled with Sephadex G-10. The column was washed with 15 ml of 0.1 N hydrochloric acid followed by 1.8 to 2.0 ml of 0.02 N aqueous ammonia, and then 5-hydroxy-indolylacetic acid was eluted with further 2.0 ml of the aqueous ammonia. 0.5 ml samples were used in the measurements, and the determination was performed according to the method of Korf et al. (Biochem. Pharmacol. 20, 659 (1971)).
(§3) In the tests disulfiram, 2,2-dipyridyl, bis(1-methyl-4-homopiperazinyl-thiocarbonyl)-disulfide, sodium diethyldithiocarbamate and N-phenyl-N'-(2-thiazolyl)-thiourea were used as reference substances. The values indicated in Table 1 are the percentages in relation to the amine levels of the controls measured in the same tests (±standard error). The statistical calculations were performed on a TPA/i type computer, using Student's t test.

[4] = test system: dopamine-β-hydroxylase; test: Noradrenaline and dopamine levels of the cerebrum (brain) in rats, % of controls; assay type: in vivo, male Wistar rats; details: rat, i.p., 400 mg/kg, time not given
Experimental: (§4) The dopamine-β-hydroxylase inhibiting effects of the new compounds according to the invention were examined by the following tests:
as §1, §2
(§5) The organs were weighed in the frozen state and then homogenized in 5.0 ml of 0.4 N perchloric acid containing 0.05% of EDTA-Naa and 0.1% of Na2 S2 O5. The homogenized mixtures were centrifuged as described above for the treatment of adrenal gland, the supernatants were decanted, and the pH was adjusted to 8.0±0.1 with a 0.1 molar tris buffer containing 20 g/l of NaOH and 25 g/l of EDTA-Na2. 100 mg of prepared Al2 O3 (Anton et al.: J. Pharm. Ther. 138, 360 (1962)) were added to the samples, and the mixtures were shaken mechanically for 20 minutes. Thereafter the Al2 O3 was washed with 2×10 ml of distilled water, and noradrenaline was eluted with 1.0 ml of 0.05 N perchloric acid. 0.5 ml samples of the eluate were used for the determination of noradrenaline. Noradrenaline was determined according to the method of Shellenberger et al. (Anal. Biochem. 39, 356 (1971)), with the following modifications of the basic procedure: 0.5 ml of 0.1 molar Na-K-phosphate buffer, containing 9 g/l of EDTA-Na2, were added to 0.5 ml of the eluate, and the catecholamines (noradrenaline in the examination of heart and spleen and noradrenaline and dopamine in the examination of the cerebrum) were oxidized with 0.1 ml of a 0.1 N iodine solution in 5% potassium iodide. After exactly 2 minutes, oxidation was stopped by adding 0.25 ml of a 2.5% sodium sulfite solution in 4.4 N aqueous sodium hydroxide to the mixture. 2 minutes after the introduction of the alkaline sulfite solution, 0.2 ml of concentrated acetic acid was added to the samples, whereupon the pH decreased to 4.4 to 4.5. Thereafter the samples were placed for 5 minutes in a drying oven heated to 100° C., and then the samples were cooled with ice water. The fluorescency of noradrenaline was measured with an OPTON spectrophotometer at wavelengths of 380 nm (excitation) and 490 nm (emission).
The brains were homogenized in 10 parts by volume of 0.4 N perchloric acid. The homogenized mixture was stored at -20° C. overnight; thereafter it was thawed and centrifuged as described above. A sample of the homogenized mixture corresponding to 0.5 g of brain was removed, the pH of the sample was adjusted to 8.0±0.1 with 0.1 molar tris-buffer of the above composition, and the sample was processed as described above for the determination of the noradrenaline content of heart and spleen, with the difference that 1.5 ml of 0.05 N perchloric acid was used as the eluting agent. 0.5 ml of the eluate was used to determine the noradrenaline and dopamine contents. The measurement was performed as described above, with the difference that samples of 0.5 ml were applied for the recording of the flourescence of noradrenaline. The residue was placed for 50 minutes into a drying oven heated to 100° C., thereafter the sample was cooled with ice water, and the fluorescence of dopamine was recorded at wavelengths of 325 nm (excitation) and 380 nm (emission).
In a further test series the serotonine and 5-hydroxy-indolylacetic acid contents were also determined, in addition to the determination of the noradrenaline and dopamine content, from the same sample. […]

[5] = test system: dopamine-β-hydroxylase; test: Noradrenaline level of heart in rats, % of controls; assay type: in vivo, male Wistar rats; details: rat, p.o., 500 mg/kg, 4 hours
Experimental: as §4, §1, §2, §5, §3

[6] = 4 hours, read-out: Brain 5-HIAA level (percentages in relation to the controls)
[7] = 4 hours, read-out: Brain SE level (percentages in relation to the controls)
[8] = 8 hours, read-out: Brain 5-HIAA level (percentages in relation to the controls)
[9] = 8 hours, read-out: Brain SE level (percentages in relation to the controls)

## CCN(CC)C(=S)S [diethyl dithiocarbamate]
[1]
  dopamine-β-hydroxylase inhibiting effects, in words: strong dopamine-β-hydroxylase inhibiting effects

## Dopastine
[1]
  dopamine-β-hydroxylase inhibiting effects, in words: strong dopamine-β-hydroxylase inhibiting effects

## S=C(SSC(=S)C1=C(NC2CCCCC2)CCC1)C1=C(NC2CCCCC2)CCC1 [M-5, 2-(N-cyclohexyl)-amino-cyclopent-1-ene-thiocarboxylic acid disulfide]
[2]; ip
  LD50: > 1000 mg/kg
[3]; [6]
  response vs control in vivo at 200 mg/kg: 143 ± 8%
[3]; [7]
  response vs control in vivo at 200 mg/kg: 104 ± 7.6%
[3]; [8]
  response vs control in vivo at 200 mg/kg: 178 ± 10.8%
[3]; [9]
  response vs control in vivo at 200 mg/kg: 105 ± 4.5%

## NNc1nncc2ccccc12 [Hydralazine]
[2]; ip
  LD50: 83 mg/kg
[1]
  dopamine-β-hydroxylase inhibiting effects, in words: possess dopamine-β-hydroxylase inhibiting effects

## CCN(CC)C(=S)[S-].[Na+] [DDC-Na, sodium diethyldithiocarbamate]
[4]
  Brain DA level (percentages in relation to the controls): 120%
  Brain NA level (percentages in relation to the controls): 64.1%

## O=C(CO)c1coc(=O)c2c(O)cccc12 [Oosponol]
[2]; ip
  LD50: 40 mg/kg
[2]; po
  LD50: 280 mg/kg
[1]
  dopamine-β-hydroxylase inhibiting effects, in words: strong dopamine-β-hydroxylase inhibiting effects

## Cn1cc[nH]c1=S [methimazol]
[1]
  dopamine-β-hydroxylase inhibiting effects, in words: possess dopamine-β-hydroxylase inhibiting effects

## CCCCNC1=C(C(=S)SSC(=S)C2=C(NCCCC)CCC2)CCC1 [M-2, 2-(N-butyl)-amino-cyclopent-1-ene-thiocarboxylic acid-disulfide]
[3]; [7]
  response vs control in vivo at 200 mg/kg: 97.6%
[3]; [9]
  response vs control in vivo at 200 mg/kg: 97.3 ± 11.3%

## C=CCNC1=C(C(=S)SSC(=S)C2=C(NCC=C)CCC2)CCC1 [M-7, 2-(N-allyl)-amino-cyclopent-1-ene-thiocarboxylic acid-disulfide]
[2]; ip
  LD50: > 1000 mg/kg
[3]; [6]
  response vs control in vivo at 200 mg/kg: 117 ± 6.5%
[3]; [7]
  response vs control in vivo at 200 mg/kg: 113 ± 8%
[3]; [8]
  response vs control in vivo at 200 mg/kg: 126 ± 10.5%
[3]; [9]
  response vs control in vivo at 200 mg/kg: 108%

## NNCc1ccccc1 [benzylhydrazine]
[1]
  dopamine-β-hydroxylase inhibiting effects, in words: exert dopamine-β-hydroxylase inhibiting effects
  duration of dopamine-β-hydroxylase inhibiting effect, in words: only active for a short period

## CCNC1=C(C(=S)SSC(=S)C2=C(NCC)CCC2)CCC1 [M-6, 2-(N-ethyl)-amino-cyclopent-1-ene-thiocarboxylic acid-disulfide]
[2]; ip
  LD50: 1000 to 1500 mg/kg
[3]; [7]
  response vs control in vivo at 100 mg/kg: 107 ± 2.2%
  response vs control in vivo at 200 mg/kg: 112 ± 5.2%
  response vs control in vivo at 500 mg/kg: 118 ± 4.6%
[3]; [6]
  response vs control in vivo at 200 mg/kg: 155 ± 8.5%
[3]; [8]
  response vs control in vivo at 200 mg/kg: 195 ± 4.8%
[3]; [9]
  response vs control in vivo at 200 mg/kg: 104 ± 7.4%
  response vs control in vivo at 500 mg/kg: 91.2 ± 0.9%

## NC1=C(C(=S)SSC(=S)C2=C(N)CCC2)CCC1 [M-1]
[2]; ip
  LD50: ~800 mg/kg
[3]; [6]
  response vs control in vivo at 200 mg/kg: 152%
[3]; [7]
  response vs control in vivo at 200 mg/kg: 115 ± 4.7%
[3]; [8]
  response vs control in vivo at 200 mg/kg: 125 ± 10.7%
[3]; [9]
  response vs control in vivo at 200 mg/kg: 111 ± 5.1%

## NOCc1ccccc1 [Benzyloxyamine]
[1]
  dopamine-β-hydroxylase inhibiting effects, in words: exert dopamine-β-hydroxylase inhibiting effects
  duration of dopamine-β-hydroxylase inhibiting effect, in words: only active for a short period

## CN1CCCN(C(=S)SSC(=S)N2CCCN(C)CC2)CC1 [FLA-63, bis(1-methyl-4-homopiperazinyl)-thiocarbonyl-disulfide]
[2]; ip
  LD50: 150 mg/kg
[3]; [6]
  response vs control in vivo at 50 mg/kg: 134%
[3]; [7]
  response vs control in vivo at 50 mg/kg: 124%
[1]; in vivo conditions
  dopamine-β-hydroxylase inhibition in vivo, in words: one of the most potent dopamine-β-hydroxylase inhibitors under in vivo conditions

## CCCCc1ccc(C(=O)O)nc1 [Fusaric acid, 5-butyl-picolinic acid]
[2]; po
  LD50: 230 ± 25 mg/kg
[1]
  dopamine-β-hydroxylase inhibiting effects, in words: strong dopamine-β-hydroxylase inhibiting effects

## COCCNC1=C(C(=S)SSC(=S)C2=C(NCCOC)CCC2)CCC1 [M-4, 2-(N-methoxyethyl)-amino-cyclopent-1-ene-thiocarboxylic acid disulfide]
[2]; ip
  LD50: > 1500 mg/kg
[5]
  Heart NA level (percentages in relation to the controls): 86.4 ± 10.1%
[3]; [6]
  response vs control in vivo at 100 mg/kg: 108 ± 9.6%
  response vs control in vivo at 200 mg/kg: 151%
  response vs control in vivo at 500 mg/kg: 95.4 ± 6%
[3]; [7]
  response vs control in vivo at 100 mg/kg: 113 ± 2.8%
  response vs control in vivo at 200 mg/kg: 113 ± 5.6%
  response vs control in vivo at 500 mg/kg: 103 ± 5.3%
[3]; [8]
  response vs control in vivo at 200 mg/kg: 161%
  response vs control in vivo at 500 mg/kg: 106 ± 4.9%
[3]; [9]
  response vs control in vivo at 200 mg/kg: 106 ± 7.5%
  response vs control in vivo at 500 mg/kg: 90.9 ± 6.7%

## CC(N)Cc1ccccc1 (stereo not shown) [amphetamine]
[1]
  dopamine-β-hydroxylase inhibiting effects, in words: possess dopamine-β-hydroxylase inhibiting effects
